# Earlier results as cited in US20090186859A1, “DIAZENIUMDIOLATED NON-STEROIDAL ANTI-INFLAMMATORY DRUGS, COMPOSITIONS THEREOF, AND RELATED METHODS” (THE UNITED STATES OF AMERICA, AS REPRESENTED BY THE SEC., …, priority 2006, published 2009).
# Tests used:
# [1] = tested on: intestinal tumorigenesis; conditions: APC (DELTA 716) mice
# [2] = long-term administration to animals
# [3] = tested on: hormone-positive tumors (estrogen receptor (ER) or progesterone receptor (PR)-positive); conditions: women who took aspirin seven or more times a week vs women who did not take it
# [4] = tested on: colon carcinogenesis; conditions: AOM-treated rat model
# [5] = tested on: colon polyp formation; conditions: those at high risk, including those already treated for colorectal cancer
# [6] = tested on: tumor; conditions: APC(Min)+ mouse model
# [7] = tested on: colonic aberrant crypt foci; conditions: male F344 rats
structure (smiles),measurement,setting,value
CS(=O)(=O)c1ccc(C2=C(c3ccc(F)c(F)c3)C(=O)OC2)cc1 [MF-Tricyclic],intestinal tumorigenesis,[1],blocks intestinal tumorigenesis
O=NN1CCC[C@H]1C(=O)O [N-nitrosoproline],tumorigenicity,[2],none of these studies showed it to be tumorigenic
"CC(=O)Oc1ccccc1C(=O)O [aspirin, acetylsalicylic acid]",lower risk of developing hormone-positive tumors,[3],26%
same,inhibition of colon carcinogenesis,[4],effectively inhibit colon carcinogenesis
same,colon polyp formation,[5],significantly reduce colon polyp formation
CC(C(=O)O)c1ccc(-c2ccccc2)c(F)c1 (stereo not drawn) [flurbiprofen],anti-tumor effects,[6],demonstrated anti-tumor effects
CC(C)Cc1ccc(C(C)C(=O)O)cc1 (stereo not drawn) [ibuprofen],inhibition of colon carcinogenesis,[4],effectively inhibit colon carcinogenesis
COc1ccc2c(c1)c(CC(=O)O)c(C)n2C(=O)c1ccc(Cl)cc1 [indomethacin],inhibition of colon carcinogenesis,[4],effectively inhibit colon carcinogenesis
COc1ccc2cc(CCC(C)=O)ccc2c1 [nabumetone],formation of colonic aberrant crypt foci,[7],inhibit formation of colonic aberrant crypt foci
CS(=O)(=O)Nc1ccc([N+](=O)[O-])cc1Oc1ccccc1 [nemisulide],formation of colonic aberrant crypt foci,[7],inhibit formation of colonic aberrant crypt foci
CN1C(C(=O)Nc2ccccn2)=C(O)c2ccccc2S1(=O)=O [piroxicam],inhibition of colon carcinogenesis,[4],effectively inhibit colon carcinogenesis
CC1=C(CC(=O)O)c2cc(F)ccc2/C1=C\c1ccc([S+](C)[O-])cc1 (stereo not drawn) [sulindac],inhibition of colon carcinogenesis,[4],effectively inhibit colon carcinogenesis
